≈ marks a conversion by molar mass, not a printed value.
How the values were obtained:
Test in all cases: MIC, agar dilution
Type in all cases: cell-based
[1] = system: S. haemolyticus AVAH 88-3; conditions: S. haemolyticus AVAH 88-3
[2] = system: E. faecalis 12201; conditions: E. faecalis 12201
[3] = system: S. aureus IVES 2943 (meth. resistant); conditions: S. aureus IVES 2943 (meth. resistant)
[4] = system: S. aureus IVES 1983 (meth. resistant); conditions: S. aureus IVES 1983 (meth. resistant)
[5] = system: S. aureus UBMS 88-7 (tetK); conditions: S. aureus UBMS 88-7 (tetK)
[6] = system: E. faecalis ATCC 29212; conditions: E. faecalis ATCC 29212
[7] = system: S. aureus UBMS 90-1 (tetM); conditions: S. aureus UBMS 90-1 (tetM)
[8] = system: E. coli UBMS 89-2 (Sensitive); conditions: E. coli UBMS 89-2 (Sensitive)
[9] = system: S. aureus UBMS 90-3 (Sensitive); conditions: S. aureus UBMS 90-3 (Sensitive)
[10] = system: E. coli UBMS 88-2 (Sensitive); conditions: E. coli UBMS 88-2 (Sensitive)
[11] = system: E. coli UBMS 89-1 (tetM); conditions: E. coli UBMS 89-1 (tetM)
[12] = system: S. aureus UBMS 88-5 (tetM); conditions: S. aureus UBMS 88-5 (tetM)
[13] = system: S. aureus Smith (Sensitive); conditions: S. aureus Smith (Sensitive)
[14] = system: S. aureus UBMS 88-4 (Sensitive); conditions: S. aureus UBMS 88-4 (Sensitive)
[15] = system: S. aureus ATCC 29213 (Sensitive); conditions: S. aureus ATCC 29213 (Sensitive)
[16] = system: S. aureus UBMS 90-2 (tetM); conditions: S. aureus UBMS 90-2 (tetM)
[17] = system: E. coli ATCC 25922; conditions: E. coli ATCC 25922
[18] = system: E. coli UBMS 88-1 (tetB); conditions: E. coli UBMS 88-1 (tetB)

Structure (SMILES) | MIC [1] | MIC [2] | MIC [3] | MIC [4] | MIC [5] | MIC [6] | MIC [7] | MIC [8] | MIC [9] | MIC [10] | MIC [11] | MIC [12] | MIC [13] | MIC [14] | MIC [15] | MIC [16] | MIC [17] | MIC [18]
CC(=O)Nc1cc(I)c2c(c1O)C(=O)C1=C(O)C3(O)C(=O)C(C(N)=O)=C(O)C(N(C)C)C3CC1C2.O=S(=O)(O)O (stereo not drawn) [H, 9-(Acetylamino)-7-iodo-6-demethyl-6-deoxytetracycline sulfate] | 2 µg/mL | 2 µg/mL | 32 µg/mL | 32 µg/mL | 16 µg/mL | 0.25 µg/mL | 1 µg/mL | 16 µg/mL | 0.12 µg/mL | >128 µg/mL | 128 µg/mL | 1 µg/mL | 0.12 µg/mL | 0.25 µg/mL | 0.22 µg/mL | 0.5 µg/mL | 16 µg/mL | 
CC(=O)OCC(=O)Nc1cc(N(C)C)c2c(c1O)C(=O)C1=C(O)[C@]3(O)C(=O)C(C(N)=O)=C(O)[C@@H](N(C)C)[C@@H]3C[C@@H]1C2 [K, 9-[[(Acetyloxy)acetyl]amino)-7-(dimethylamino)-6-demethyl-6-deoxytetracycline] | 0.5 µg/mL (≈ 0.873 µM) | 0.25 µg/mL (≈ 0.437 µM) | 32 µg/mL (≈ 55.9 µM) | 32 µg/mL (≈ 55.9 µM) | 32 µg/mL (≈ 55.9 µM) | 0.06 µg/mL (≈ 0.105 µM) | 0.25 µg/mL (≈ 0.437 µM) | 8 µg/mL (≈ 14 µM) | 0.03 µg/mL (≈ 0.0524 µM) | 4 µg/mL (≈ 6.99 µM) | 1 µg/mL (≈ 1.75 µM) | 0.25 µg/mL (≈ 0.437 µM) | ≦0.015 μg/ml | 0.12 µg/mL (≈ 0.21 µM) | ≦0.015 μg/ml | 0.06 µg/mL (≈ 0.105 µM) | 4 µg/mL (≈ 6.99 µM) | 16 µg/mL (≈ 27.9 µM)
CN(C)c1cc(NC(=O)c2cccs2)c(O)c2c1CC1CC3C(N(C)C)C(O)=C(C(N)=O)C(=O)C3(O)C(O)=C1C2=O (stereo not drawn) [Z, 7-(Dimethylamino)-9-[(2-thienylcarbonyl)amino]-6-demethyl-6-deoxytetracycline] | 8 µg/mL (≈ 13.7 µM) | 8 µg/mL (≈ 13.7 µM) | 32 µg/mL (≈ 54.9 µM) | 32 µg/mL (≈ 54.9 µM) | 32 µg/mL (≈ 54.9 µM) | 8 µg/mL (≈ 13.7 µM) | 4 µg/mL (≈ 6.87 µM) | >32 µg/mL | 2 µg/mL (≈ 3.43 µM) | >32 µg/mL | >32 µg/mL | 8 µg/mL (≈ 13.7 µM) | 2 µg/mL (≈ 3.43 µM) | 8 µg/mL (≈ 13.7 µM) | 0.5 µg/mL (≈ 0.858 µM) | 4 µg/mL (≈ 6.87 µM) | 32 µg/mL (≈ 54.9 µM) | >32 µg/mL
CN(C)C1C(O)=C(C(N)=O)C(=O)C2(O)C(O)=C3C(=O)c4c(O)c(NC=O)cc(I)c4CC3CC12.O=S(=O)(O)O (stereo not drawn) [G, 9-(Formylamino)-7-iodo-6-demethyl-6-deoxytetracycline sulfate] | 0.06 µg/mL | 16 µg/mL | 32 µg/mL | 32 µg/mL | 16 µg/mL | 0.25 µg/mL | 4 µg/mL | 1 µg/mL | 0.03 µg/mL | 1 µg/mL | 1 µg/mL | 1 µg/mL | 0.03 µg/mL | <0.015 µg/mL |  | 0.5 µg/mL | 0.5 µg/mL | >32 µg/mL
CN(C)c1cc(NC(=O)C(F)(F)F)c(O)c2c1C[C@H]1C[C@H]3[C@H](N(C)C)C(O)=C(C(N)=O)C(=O)[C@@]3(O)C(O)=C1C2=O.O=S(=O)(O)O [I, 7-(Dimethylamino)-9-((trifluoroacetyl)amino]-g-demethyl-6-deoxytetracycline sulfate] | 0.5 µg/mL | 16 µg/mL |  | 32 µg/mL | 16 µg/mL | 8 µg/mL | 16 µg/mL | 32 µg/mL | 4 µg/mL | 32 µg/mL | 32 µg/mL | 16 µg/mL | 8 µg/mL | 8 µg/mL | 1 µg/mL | 16 µg/mL | 32 µg/mL | >32 µg/mL
CN(C)c1cc(NS(=O)(=O)c2ccc([N+](=O)[O-])cc2)c(O)c2c1CC1CC3C(N(C)C)C(O)=C(C(N)=O)C(=O)C3(O)C(O)=C1C2=O (stereo not drawn) [AA, 7-(Dimethylamino)-9-[[(4-nitrophenyl)sulfonyl]amino]-6-demethyl-6-deoxytetracycline] | 2 µg/mL (≈ 3.04 µM) |  | 4 µg/mL (≈ 6.08 µM) | 8 µg/mL (≈ 12.2 µM) | 2 µg/mL (≈ 3.04 µM) | 0.12 µg/mL (≈ 0.182 µM) | 0.5 µg/mL (≈ 0.76 µM) | 16 µg/mL (≈ 24.3 µM) | 0.06 µg/mL (≈ 0.0912 µM) | 8 µg/mL (≈ 12.2 µM) | 4 µg/mL (≈ 6.08 µM) | 0.12 µg/mL (≈ 0.182 µM) | 0.12 µg/mL (≈ 0.182 µM) | 0.12 µg/mL (≈ 0.182 µM) | 0.12 µg/mL (≈ 0.182 µM) | 0.12 µg/mL (≈ 0.182 µM) | 4 µg/mL (≈ 6.08 µM) | 16 µg/mL (≈ 24.3 µM)
CN(C)c1cc(NC(=O)c2c(F)c(F)c(F)c(F)c2F)c(O)c2c1CC1CC3C(N(C)C)C(O)=C(C(N)=O)C(=O)C3(O)C(O)=C1C2=O (stereo not drawn) [T, 7-(Dimethylamino)-9-((pentafluorobenzoyl)amino]-6-demethyl-6-deoxytetracycline] | 4 µg/mL (≈ 6 µM) | 4 µg/mL (≈ 6 µM) | 4 µg/mL (≈ 6 µM) | 4 µg/mL (≈ 6 µM) | 4 µg/mL (≈ 6 µM) | 4 µg/mL (≈ 6 µM) | 4 µg/mL (≈ 6 µM) | >32 µg/mL | 2 µg/mL (≈ 3 µM) | >32 µg/mL |  | 4 µg/mL (≈ 6 µM) | 4 µg/mL (≈ 6 µM) | 4 µg/mL (≈ 6 µM) | 1 µg/mL (≈ 1.5 µM) | 2 µg/mL (≈ 3 µM) | >32 µg/mL | >32 µg/mL
Cc1ccccc1C(=O)Nc1cc(N(C)C)c2c(c1O)C(=O)C1=C(O)C3(O)C(=O)C(C(N)=O)=C(O)C(N(C)C)C3CC1C2 (stereo not drawn) [R, 7-(Dimethylamino)-9-((2-methylbenzoyl)amino]-6-demethyl-6-deoxytetracycline] | 8 µg/mL (≈ 13.5 µM) | 8 µg/mL (≈ 13.5 µM) | 4 µg/mL (≈ 6.77 µM) | 8 µg/mL (≈ 13.5 µM) | 4 µg/mL (≈ 6.77 µM) | 2 µg/mL (≈ 3.39 µM) | 8 µg/mL (≈ 13.5 µM) | >32 µg/mL | 1 µg/mL (≈ 1.69 µM) | >32 µg/mL |  | 4 µg/mL (≈ 6.77 µM) | 1 µg/mL (≈ 1.69 µM) | 2 µg/mL (≈ 3.39 µM) | 0.12 µg/mL (≈ 0.203 µM) | 2 µg/mL (≈ 3.39 µM) | >32 µg/mL | 2 µg/mL (≈ 3.39 µM)
CN(C)c1cc(NC(=O)c2ccccc2F)c(O)c2c1CC1CC3C(N(C)C)C(O)=C(C(N)=O)C(=O)C3(O)C(O)=C1C2=O (stereo not drawn) [S, 7-(Dimethylamino)-9-[(2-fluorobenzoyl)amino]-6-demethyl-6-deoxytetracycline] | 4 µg/mL (≈ 6.73 µM) | 4 µg/mL (≈ 6.73 µM) | 8 µg/mL (≈ 13.5 µM) | 4 µg/mL (≈ 6.73 µM) | 8 µg/mL (≈ 13.5 µM) | 4 µg/mL (≈ 6.73 µM) | 4 µg/mL (≈ 6.73 µM) | >32 µg/mL | 1 µg/mL (≈ 1.68 µM) | >32 µg/mL |  | 2 µg/mL (≈ 3.36 µM) | 1 µg/mL (≈ 1.68 µM) | 2 µg/mL (≈ 3.36 µM) | 0.5 µg/mL (≈ 0.841 µM) | 1 µg/mL (≈ 1.68 µM) | >32 µg/mL | >32 µg/mL
CC(=O)Nc1nc(C)c(S(=O)(=O)Nc2cc(N(C)C)c3c(c2O)C(=O)C2=C(O)C4(O)C(=O)C(C(N)=O)=C(O)C(N(C)C)C4CC2C3)s1 (stereo not drawn) [GG, 9-[[[(2-Acetylamino)-4-methyl-5-thiazolyl]sulfonyl]amino]-7-(dimethylamino)-6-demethyl-6-deoxytetracycline] |  |  | >32 µg/mL | 32 µg/mL (≈ 46.3 µM) | 32 µg/mL (≈ 46.3 µM) | 1 µg/mL (≈ 1.45 µM) | 32 µg/mL (≈ 46.3 µM) | >32 µg/mL | 2 µg/mL (≈ 2.9 µM) | >32 µg/mL | 32 µg/mL (≈ 46.3 µM) | 16 µg/mL (≈ 23.2 µM) | 2 µg/mL (≈ 2.9 µM) | 4 µg/mL (≈ 5.79 µM) | 0.5 µg/mL (≈ 0.724 µM) | 4 µg/mL (≈ 5.79 µM) | >32 µg/mL | >32 µg/mL

— patent USRE40086E1, “Method for treating bacterial infection with novel 7-substituted-9-substituted amino 6-demethyl-6-deoxytetracyclines” (Wyeth Holdings Corporation, priority 1991, dated 2008)
